Among the test systems are CAKI-1 renal; EKVX NSCLC; T-47D breast; HOP-92 NSCLC; PC-3 prostate; SK-MEL-5 melanoma; TK-10 renal; SK-MEL-2 melanoma; SK-OV-3 ovarian; DU-145 prostate.
Holding throughout (assay): inhibition of tumour cell growth, NCI panel, 48 h

We go through two compounds from PubChem BioAssay (NCI).

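Step 1: Grow cells in 96-well plates. Step 2: Expose to compound for 48 hours at 5 concentrations. Step 3: Interpolate endpoints linearly; if unreached, use highest concentration. TGI is the concentration that stops growth completely.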 Some results are limits rather than exact numbers.

Take `CC[C@@]12C=CC(=S)N(CCSc3ccccc3)[C@@H]1c1c(n(S(=O)(=O)c3ccc(OC)cc3)c3ccccc13)CC2`: the TGI with CAKI-1 renal, with EKVX NSCLC, with T-47D breast, in the experiment on HOP-92 NSCLC, in the experiment with PC-3 prostate and with SK-MEL-5 melanoma was over 100 µM each time. The TGI in the experiment on TK-10 renal, with SK-MEL-2 melanoma, with SK-OV-3 ovarian and in the experiment on DU-145 prostate was over 100 µM throughout.

As to `Oc1ccc(O)c(CNc2ccccc2)c1`, the TGI in the experiment on CAKI-1 renal was 23.1 µM; with EKVX NSCLC, 43.4 µM; with T-47D breast, 37.9 µM; in the experiment on HOP-92 NSCLC it was 20.8 µM; in the experiment with PC-3 prostate, 30 µM; in the experiment on SK-MEL-5 melanoma it was 33.9 µM. Further, the TGI in the experiment with TK-10 renal was determined as 39.1 µM; in the experiment on SK-MEL-2 melanoma, 82.2 µM; in the experiment on SK-OV-3 ovarian, 38.9 µM; with DU-145 prostate, 32.2 µM.
